Measured values taken from patent publication US9656959B2, “Substituted pyridines as sodium channel blockers” (Purdue Pharma L.P., priority 2010, dated 2017).

Legend:
human Nav1.7 = human Nav1.7 (Homo sapiens (Human), UniProt Q15858); assay: FLIPR or FLIPR TETRA sodium dye assay with KCl and test article pre-incubation; format: cell-based; conditions: recombinant Nav1.7/HEK293 cells; CoroNa Green sodium dye; veratridine + scorpion venom agonists; ± SEM
hNav1.7 = hNav1.7 (Homo sapiens (Human), UniProt Q15858); assay: Electrophysiology (EP) assay, whole-cell patch clamp; format: cell-based; conditions: hNav1.7 HEK-293 cells
Procedure: The hNav1.7 expressing HEK-293 cells were plated on 35 mm culture dishes pre-coated with poly-D-lysine in standard DMEM culture media (Mediatech, Inc., Herndon, Va.) and incubated in a 5% CO2 incubator at 37° C. Cultured cells were used approximately 12-48 hours after plating.
On the day of experimentation, the 35 mm dish was placed on the stage of an inverted microscope equipped with a perfusion system that continuously perfuses the culture dish with fresh recording media. A gravity driven superfusion system was used to apply test solutions directly to the cell under evaluation. This system consists of an array of glass pipette connected to a motorized horizontal translator. The outlet of the shooter was positioned approximately 100 μm from the cell of interest.
Whole cell currents were recorded using the whole-cell patch clamp configuration using an Axopatch 200B amplifier (Axon Instruments, Foster City Calif.), 1322A A/D converter (Axon Instruments) and pClamp software (v. 8; Axon Instruments) and stored on a personal computer. Gigaseals were formed and the whole-cell configuration was established in voltage clamp mode, and membrane currents generated by hNav1.7 were recorded in gap-free mode. Borosilicate glass pipettes have resistance values between 1.5 and 2.0 MΩ when filled with pipette solution and series resistance (<5 MΩ) was compensated 75-80%. Signals were sampled at 50 kHz and low pass filtered at 3 kHz.
After establishing the whole-cell configuration in voltage clamp mode, voltage protocols were run to establish the 1) test potential, 2) holding potential, and 3) the conditioning potential for each cell.
After establishing the whole-cell configuration in voltage clamp mode, a standard I-V protocol was run to determine the potential at which the maximal current (Imax) is elicited. This potential was the test potential (Vt). […] This protocol also permitted determination of the holding potential at which all channels are in the resting state.
For compounds causing significant retardation of recovery from inactivation, an estimate of the affinity for the inactivated state of the channel (Ki) was generated using the following protocol. From the negative, no residual inactivation, holding potential, the cell was depolarized to the conditioning voltage for 2-5 seconds, returned to the negative holding potential for 10-20 ms to relieve fast inactivation and then depolarized to the test potential for ˜15 ms. This voltage protocol was repeated every 10-15 seconds, first to establish a baseline in the absence of the test compound, then in the presence of the test compound.
After a stable baseline was established, the test compound was applied and block of the current elicited by the test pulse assessed. In some cases, multiple cumulative concentrations were applied to identify a concentration that blocked between 40-60% of this current. Washout of the compound was attempted by superfusing with control solution once steady-state block was observed. An estimate of the K, was calculated as follows: Ki=[drug]*{FR/(1−FR)}, Eq. 1
where [drug] is the concentration of a drug, and FR=I(after drug)/I(control), Eq. 2 where I is the peak current amplitude. If multiple concentrations were used, Ki was determined from the fit of a logistic equation to FRs plotted against corresponding drug concentrations.
In the alternative, the voltage clamp protocol to examine hNav1.7 currents was as follows. First, the standard current-voltage relationship was tested by pulsing the cell from the holding voltage (Vh) of −120 mV by a series of 5 msec long square-shaped test pulses incrementing in +10 mV steps over the membrane voltage range of −90 mV to +60 mV at the pace of stimulation of 0.5 Hz. This procedure determines the voltage that elicits the maximal current (Vmax). […]

Sequence of hNav1.7 (Q15858 other isoform, or with tags, fused parts or gaps): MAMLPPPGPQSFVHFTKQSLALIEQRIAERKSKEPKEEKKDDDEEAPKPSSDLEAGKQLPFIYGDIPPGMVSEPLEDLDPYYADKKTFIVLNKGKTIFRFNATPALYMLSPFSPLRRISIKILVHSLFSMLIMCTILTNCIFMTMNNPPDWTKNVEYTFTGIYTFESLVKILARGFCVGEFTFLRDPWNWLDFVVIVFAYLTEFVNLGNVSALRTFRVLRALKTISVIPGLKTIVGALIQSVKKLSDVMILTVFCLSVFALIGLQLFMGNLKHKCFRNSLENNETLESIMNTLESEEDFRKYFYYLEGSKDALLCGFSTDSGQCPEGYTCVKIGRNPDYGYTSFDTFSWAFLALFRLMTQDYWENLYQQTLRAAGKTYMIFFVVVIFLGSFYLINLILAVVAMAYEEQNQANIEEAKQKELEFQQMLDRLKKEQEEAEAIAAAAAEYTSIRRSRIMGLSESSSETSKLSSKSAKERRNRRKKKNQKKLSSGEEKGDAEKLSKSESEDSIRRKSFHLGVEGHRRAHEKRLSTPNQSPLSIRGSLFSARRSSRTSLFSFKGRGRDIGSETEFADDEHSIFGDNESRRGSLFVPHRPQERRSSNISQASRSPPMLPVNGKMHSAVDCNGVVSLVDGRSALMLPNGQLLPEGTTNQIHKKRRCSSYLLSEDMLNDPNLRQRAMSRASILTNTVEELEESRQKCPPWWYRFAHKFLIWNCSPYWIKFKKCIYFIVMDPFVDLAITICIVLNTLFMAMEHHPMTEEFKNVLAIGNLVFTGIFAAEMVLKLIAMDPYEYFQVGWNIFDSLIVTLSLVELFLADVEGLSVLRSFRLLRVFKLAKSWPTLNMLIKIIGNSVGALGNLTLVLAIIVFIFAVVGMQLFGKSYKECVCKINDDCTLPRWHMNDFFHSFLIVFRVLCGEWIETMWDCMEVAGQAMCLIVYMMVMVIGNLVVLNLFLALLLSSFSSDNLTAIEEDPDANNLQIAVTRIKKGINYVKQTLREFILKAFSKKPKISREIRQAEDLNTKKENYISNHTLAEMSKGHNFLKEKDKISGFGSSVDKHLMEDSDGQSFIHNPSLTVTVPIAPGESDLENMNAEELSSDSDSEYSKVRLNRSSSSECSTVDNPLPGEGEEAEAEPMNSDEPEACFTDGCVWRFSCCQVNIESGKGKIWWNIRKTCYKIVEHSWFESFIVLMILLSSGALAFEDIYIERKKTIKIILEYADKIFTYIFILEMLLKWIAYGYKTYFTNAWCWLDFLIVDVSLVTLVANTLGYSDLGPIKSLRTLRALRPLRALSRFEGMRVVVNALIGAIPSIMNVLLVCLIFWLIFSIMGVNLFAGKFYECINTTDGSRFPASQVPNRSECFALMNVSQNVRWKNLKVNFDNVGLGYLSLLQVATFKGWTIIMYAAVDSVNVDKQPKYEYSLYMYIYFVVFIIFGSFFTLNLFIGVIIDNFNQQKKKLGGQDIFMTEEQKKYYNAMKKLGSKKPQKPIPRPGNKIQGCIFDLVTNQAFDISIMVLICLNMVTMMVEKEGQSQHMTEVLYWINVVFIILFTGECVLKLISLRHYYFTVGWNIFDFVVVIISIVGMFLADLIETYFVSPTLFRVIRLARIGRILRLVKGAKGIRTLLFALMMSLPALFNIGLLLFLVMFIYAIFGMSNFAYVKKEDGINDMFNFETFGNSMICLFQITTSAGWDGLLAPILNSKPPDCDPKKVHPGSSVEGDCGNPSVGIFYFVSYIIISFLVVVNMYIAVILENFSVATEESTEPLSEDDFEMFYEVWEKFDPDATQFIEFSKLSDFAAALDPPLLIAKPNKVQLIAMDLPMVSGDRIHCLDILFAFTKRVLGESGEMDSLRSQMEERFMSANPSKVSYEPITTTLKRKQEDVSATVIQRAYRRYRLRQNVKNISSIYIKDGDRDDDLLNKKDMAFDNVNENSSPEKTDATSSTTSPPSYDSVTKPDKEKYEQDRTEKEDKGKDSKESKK
Sequence of human Nav1.7 (Q15858 with tags, fused parts or gaps limits assumed): as the sequence (Q15858 other isoform, or with tags, fused parts or gaps) above

O=C(Nc1cccc(-c2ccc(Oc3ccc(F)cc3)cc2)n1)C(O)CO (stereo not drawn) [Compound 72, N-(6-(4-(4-fluorophenoxy)phenyl)pyridin-2-yl)-2,3-dihydroxypropanamide]
IC50 (human Nav1.7): 0.074 µM
Ki (hNav1.7; affinity for the inactivated state of the channel, read-out: Nav1.7 Activity (μM) EP assay Ki): 0.143 ± 0.03 µM
Kd (hNav1.7; resting block dissociation constant, read-out: Nav1.7 Activity (μM) EP assay Kr): 8.91 ± 1.21 µM
